This note sets out measurements from patent US8952157B2, “Apoptosis-inducing agents for the treatment of cancer and immune and autoimmune diseases” (AbbVie Inc., priority 2008, dated 2015).

SMILES strings stand for the structures. pKi: −log10 of the molar value.

This assay deals with GST-Bcl-2 (Homo sapiens (Human), UniProt P10415). In words: Time Resolved-Fluorescence Resonance Energy Transfer (TR-FRET) Bcl-2 binding assay. The settings on record: GST-Bcl-2 1 nM, F-Bak peptide probe 100 nM, Tb-anti-GST antibody 1 nM; Ki by Wang's equation. The procedure, abridged: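 Competition TR-FRET: GST-Bcl-2 with fluorescent Bak peptide probe and Tb-anti-GST antibody, compounds serially diluted from 50 μM (2× start, 10% DMSO).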
GST-Bcl-2, sequence (P10415 whole entry): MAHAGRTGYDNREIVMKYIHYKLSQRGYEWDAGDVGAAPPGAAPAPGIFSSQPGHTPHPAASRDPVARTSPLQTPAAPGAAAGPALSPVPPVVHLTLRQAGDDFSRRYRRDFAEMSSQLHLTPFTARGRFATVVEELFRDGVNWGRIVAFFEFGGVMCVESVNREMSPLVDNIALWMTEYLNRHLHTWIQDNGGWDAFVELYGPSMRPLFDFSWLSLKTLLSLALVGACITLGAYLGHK
On the technique in general: TR-FRET usually uses a lanthanide donor and a delayed reading to cut background.
Broadly, the pKi is the negative decadic logarithm of the Ki, by convention in mol/L. Read a low pKi as a large Ki. Take `CC1(C)CC(c2ccc(Cl)cc2)=C(CN2CCN(c3ccc(C(=O)NS(=O)(=O)c4cnc(OCC5(F)CCOCC5)c(Cl)c4)c(Oc4cnc(N)c(Cl)c4)c3)CC2)CO1` [Example 390, 2-[(6-amino-5-chloropyridin-3-yl)oxy]-N-({5-chloro-6-[(4-fluorotetrahydro-2H-pyran-4-yl)methoxy]pyridin-3-yl}sulfonyl)-4-(4-{[4-(4-chlorophenyl)-6,6-dimethyl-5,6-dihydro-2H-pyran-3-yl]methyl}piperazin-1-yl)benzamide]: the pKi was more than 11.00.

With `CN1CCC(Nc2ccc(S(=O)(=O)NC(=O)c3ccc(N4CCN(CC5=C(c6ccc(Cl)cc6)CC(C)(C)CC5)CC4)cc3Oc3cccc(C(F)(F)F)c3Cl)cc2[N+](=O)[O-])CC1` [Example 64, 4-(4-((2-(4-chlorophenyl)-4,4-dimethylcyclohex-1-en-1-yl)methyl)piperazin-1-yl)-2-(2-chloro-3-(trifluoromethyl)phenoxy)-N-((4-((1-methylpiperidin-4-yl)amino)-3-nitrophenyl)sulfonyl)benzamide], the pKi is 9.34.

`CC1(C)CCC(CN2CCN(c3ccc(C(=O)NS(=O)(=O)c4cnc(OCC5(F)CCOCC5)c(Cl)c4)c(Oc4cnc(N)c(Cl)c4)c3)CC2)=C(c2ccc(Cl)cc2)C1` [Example 349, 2-[(6-amino-5-chloropyridin-3-yl)oxy]-N-({5-chloro-6-[(4-fluorotetrahydro-2H-pyran-4-yl)methoxy]pyridin-3-yl}sulfonyl)-4-(4-{[2-(4-chlorophenyl)-4,4-dimethylcyclohex-1-en-1-yl]methyl}piperazin-1-yl)benzamide] gave a pKi of 10.72.

`CC1(C)CCC(CN2CCN(c3ccc(C(=O)NS(=O)(=O)c4ccc(NCC5CCOCC5)c([N+](=O)[O-])c4)c(Oc4cnc(N)c(C#N)c4)c3)CC2)=C(c2ccc(Cl)cc2)C1` [Example 352, 2-[(6-amino-5-cyanopyridin-3-yl)oxy]-4-(4-{[2-(4-chlorophenyl)-4,4-dimethylcyclohex-1-en-1-yl]methyl}piperazin-1-yl)-N-({3-nitro-4-[(tetrahydro-2H-pyran-4-ylmethyl)amino]phenyl}sulfonyl)benzamide] had a pKi of 10.10.

`CC1(C)CCC(CN2CCN(c3ccc(C(=O)NS(=O)(=O)c4ccc(NCCCN5CCNC(=O)C5)c([N+](=O)[O-])c4)c(Oc4ccccc4Cl)c3)CC2)=C(c2ccc(Cl)cc2)C1` [Example 254, 2-(2-chlorophenoxy)-4-(4-{[2-(4-chlorophenyl)-4,4-dimethylcyclohex-1-en-1-yl]methyl}piperazin-1-yl)-N-[(3-nitro-4-{[3-(3-oxopiperazin-1-yl)propyl]amino}phenyl)sulfonyl]benzamide]: the pKi is 9.92.

`CN1CCC(Nc2ccc(S(=O)(=O)NC(=O)c3ccc(N4CCN(CC5=C(c6ccc(Cl)cc6)CC(C)(C)CC5)CC4)cc3Oc3ccc4[nH]ccc4c3F)cc2[N+](=O)[O-])CC1` [Example 157, 4-(4-{[2-(4-chlorophenyl)-4,4-dimethylcyclohex-1-en-1-yl]methyl}piperazin-1-yl)-2-[(4-fluoro-1H-indol-5-yl)oxy]-N-({4-[(1-methylpiperidin-4-yl)amino]-3-nitrophenyl}sulfonyl)benzamide] showed a pKi of 9.14. Against the preceding molecule, the pKi is 0.78 log units lower.

Take `CC1(C)CCC(CN2CCN(c3ccc(C(=O)NS(=O)(=O)c4ccc(NCC5COCCO5)c([N+](=O)[O-])c4)c(Oc4cc5cc[nH]c5cc4Cl)c3)CC2)=C(c2ccc(Cl)cc2)C1` (centres unmarked) [Example 291, 2-[(6-chloro-1H-indol-5-yl)oxy]-4-(4-{[2-(4-chlorophenyl)-4,4-dimethylcyclohex-1-en-1-yl]methyl}piperazin-1-yl)-N-({4-[(1,4-dioxan-2-ylmethyl)amino]-3-nitrophenyl}sulfonyl)benzamide]: the pKi was 9.56.

The molecule `O=C1CCc2c(cccc2Oc2cc(N3CCN(Cc4ccccc4-c4ccc(Cl)cc4)CC3)ccc2C(=O)NS(=O)(=O)c2ccc(NCC3CCOCC3)c([N+](=O)[O-])c2)N1` [Example 95, 4-(4-((4′-chloro-1,1′-biphenyl-2-yl)methyl)piperazin-1-yl)-N-((3-nitro-4-((tetrahydro-2H-pyran-4-ylmethyl)amino)phenyl)sulfonyl)-2-((2-oxo-1,2,3,4-tetrahydroquinolin-5-yl)oxy)benzamide] gave a pKi of 9.37. This pKi and that of the molecule before are within 0.2 log units of each other.

Take `CC1(C)CC(c2ccc(Cl)cc2)=C(CN2CCN(c3ccc(C(=O)NS(=O)(=O)c4ccc(NCC5CCOCC5)c([N+](=O)[O-])c4)c(Oc4cc5cc[nH]c5cc4F)c3)CC2)CO1` [Example 277, 4-(4-{[4-(4-chlorophenyl)-6,6-dimethyl-5,6-dihydro-2H-pyran-3-yl]methyl}piperazin-1-yl)-2-[(6-fluoro-1H-indol-5-yl)oxy]-N-({3-nitro-4-[(tetrahydro-2H-pyran-4-ylmethyl)amino]phenyl}sulfonyl)benzamide]: the pKi is 10.77.

`CN1CCC(Nc2ccc(C(=O)NS(=O)(=O)c3ccc(N4CCN(Cc5ccccc5-c5ccc(Cl)cc5)CC4)cc3Oc3cc(Cl)cc(Cl)c3)cc2[N+](=O)[O-])CC1` [Example 111, N-{[4-{4-[(4′-chloro-1,1′-biphenyl-2-yl)methyl]piperazin-1-yl}-2-(3,5-dichlorophenoxy)phenyl]sulfonyl}-4-[(1-methylpiperidin-4-yl)amino]-3-nitrobenzamide]: the pKi is 7.76. Against the preceding molecule, the pKi is 3.01 log units lower.

The molecule `CC1(C)CCC(CN2CCN(c3ccc(C(=O)NS(=O)(=O)c4cnc(OCC5(F)CCN(CC(F)F)CC5)c(Cl)c4)c(Oc4cnc(N)c(Cl)c4)c3)CC2)=C(c2ccc(Cl)cc2)C1` [Example 403, 2-[(6-amino-5-chloropyridin-3-yl)oxy]-N-[(5-chloro-6-{[1-(2,2-difluoroethyl)-4-fluoropiperidin-4-yl]methoxy}pyridin-3-yl)sulfonyl]-4-(4-{[2-(4-chlorophenyl)-4,4-dimethylcyclohex-1-en-1-yl]methyl}piperazin-1-yl)benzamide] showed a pKi of 8.67. This pKi lies 0.91 log units higher than the previous one.

Molecule `O=C(NS(=O)(=O)c1ccc(NCC2CCOCC2)c([N+](=O)[O-])c1)c1ccc(N2CCN(Cc3ccccc3-c3ccc(Cl)cc3)CC2)cc1Oc1ccc(OCCN2CCOCC2)cc1` [Example 94, 4-(4-((4′-chloro-1,1′-biphenyl-2-yl)methyl)piperazin-1-yl)-2-(4-(2-morpholin-4-ylethoxy)phenoxy)-N-((3-nitro-4-((tetrahydro-2H-pyran-4-ylmethyl)amino)phenyl)sulfonyl)benzamide] had a pKi of 6.25. This pKi is 2.42 log units lower than that of the molecule before.

For the molecule `O=C(NS(=O)(=O)c1ccc(NCC2CCOCC2)c([N+](=O)[O-])c1)c1ccc(N2CCN(Cc3ccccc3-c3ccc(Cl)cc3)CC2)cc1Oc1ccccc1Cl` [Example 5, 4-(4-((4′-chloro-1,1′-biphenyl-2-yl)methyl)piperazin-1-yl)-2-(2-chlorophenoxy)-N-((3-nitro-4-((tetrahydro-2H-pyran-4-ylmethyl)amino)phenyl)sulfonyl)benzamide], the pKi is 9.13.

Turning to `CN1CCC(Nc2ccc(S(=O)(=O)NC(=O)c3ccc(N4CCN(CC5=C(c6ccc(Cl)cc6)CC(C)(C)CC5)CC4)cc3Oc3cc(F)cc(F)c3Cl)cc2[N+](=O)[O-])CC1` [Example 165, 2-(2-chloro-3,5-difluorophenoxy)-4-(4-{[2-(4-chlorophenyl)-4,4-dimethylcyclohex-1-en-1-yl]methyl}piperazin-1-yl)-N-({4-[(1-methylpiperidin-4-yl)amino]-3-nitrophenyl}sulfonyl)benzamide], the pKi was 9.92.
